Results reported in PubChem BioAssay AID2060345 (Molecular Pharmacology Branch, DTP, NCI, 2025).
“And” between values parts separate entries of the source, which are not always exact repeats. Identical values can stand only once.

System: MALME-3M multicell spheroids, viability
Experiment: Anticancer human tumor MALME-3M cell line growth inhibition [TAK];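 also: spheroids exposed to drugs for seven days before readout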;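 as to viability, T/C: 100% = DMSO vehicle control viability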
Conditions: for viability, T/C: stronger effect = lower value
From the text: Combinatorial screen of targeted agents with TAK-243 and ipatasertib in multi-cell type tumor spheroids
A high-throughput screen of multi-cell type tumor spheroids was designed to identify active combinations of targeted small molecules and TAK-243 or ipatasertib. Complex spheroids include a stromal component modeled by human endothelial cells (HUVEC) and fibroblasts modeled by human mesenchymal stem cells (MSCs). The concentration ranges selected for each drug and investigational agent were based upon clinically achievable concentrations if the clinical Cmax of the agent was known.
Compounds. The drugs and investigational agents: TAK-243 (785004), ipatasertib (767898), everolimus (733504), selumetinib (741078), bortezomib (756655), trametinib (758246), ixazomib (758254), vemurafenib (761431), dabrafenib (764134), sapanisertib (764658), alpelisib (765974), and copanlisib (816437), were obtained from the National Cancer Institute (NCI) Developmental Therapeutics Program Chemical Repository. The FDA-approved anticancer drug set is available from the NCI Developmental Therapeutics Program. […] The stock solutions were prepared in dimethyl sulfoxide (DMSO, Sigma-Aldrich, St. Louis, MO, cat. D2650) at 800-fold the tested concentration and stored at -70 degrees C prior to their use. All drugs and investigational agents were tested over a range starting from a high concentration at or near the clinical Cmax and decreasing in half-log increments. If the clinical Cmax for an agent had not been determined, the highest concentration tested was 10 microM.
NCI60 Cell Culture. NCI60 cell lines were obtained from the NCI Developmental Therapeutics Program Tumor Repository. For each lot of cells, the Repository performed Applied Biosystems AmpFLSTR Identifiler testing with PCR amplification to confirm consistency with the published Identifier STR profile for each cell line. Cells were kept in continuous culture for no more than 20 passages. The optimal seeding densities for each of the cell lines at each time point assessed were determined prior to performing the concentration response studies. Briefly, the NCI60 human tumor lines were grown as monolayers in RPMI 1640 medium supplemented with 10% FBS and 2 mmol/L L-glutamine.
An additional 2 lines were from the NCI60 cell line panel including melanomas, MALME-3M and SK-MEL-2. Pooled donor human umbilical vein endothelial cells (HUVEC, Lonza, cat. CC-2519) and human mesenchymal stem cells (hMSC, Lonza, cat. PT-2501) were purchased from Lonza (Walkersville, MD).
PDMR cell lines were grown in complete medium (DC medium): Dulbecco's modified Eagle's medium (DMEM)/F12 supplemented with 5% fetal bovine serum (FBS), 2 mM L-glutamine, 100 U/mL penicillin and 100 µg/ml streptomycin, 0.4 µg/ml hydrocortisone, 10 ng/ml epidermal growth factor (EGF) recombinant human protein, 24 µg/mL adenine, and 0.1 mg/mL primocin. During culture from frozen stock vials, PDMR cells were cultured in the same medium containing 10 µM Y-27632 (see Table 3). The PDCs were cultured in complete DMEM/F12 media without 10 microM Y-27632 dihydrochloride for at least two passages prior to the screen. The pooled donor HUVEC and hMSC were cultured in endothelial cell growth medium 2 (PromoCell, Heidelberg, Germany, cat. C-22011) and mesenchymal stem cell growth medium 2 (PromoCell, cat. C-28009), respectively. For all experiments, HUVEC and hMSC were used at passages </=5.
For the pre-screen, cell seeding densities were determined from a titration spanning the range from 5,000 to 313 cells per well. The mct-spheroids including 60% malignant cells, 25% HUVEC and 15% MSC dispensed as a mixture into U-bottom Ultra-Low Attachment 384-well plates (Corning, NY)
High-throughput Drug Combination Screening.
Prior to their inoculation into 384-well plates, malignant cells, HUVEC, and hMSC were removed from T flasks using TrypLE express (Thermo Fisher Scientific, cat. 12605036) and harvested by centrifugation for 5 min at 233 x g. […]

`CC(=O)Nc1cccc(-n2c(=O)n(C3CC3)c(=O)c3c(Nc4ccc(I)cc4F)n(C)c(=O)c(C)c32)c1` was tested, and the viability, T/C (compound 94.9 pM) was 92.9% and 86.3%, the viability, T/C (compound 0.0003 µM) was 48.6% and 49.9% and the viability, T/C (compound 0.000949 µM) was 20.2% and 18.5%. For the same molecule, the viability, T/C (compound 0.003 µM) was 15.9% and 15.3%, the viability, T/C (compound 0.00949 µM) was 9.62% and 9.1% and the viability, T/C (compound 0.03 µM) was 5.56% and 5.65%. The IC50 (curve of compound) was 0.284 nM and 0.293 nM.
For `CC(C)(C)c1nc(-c2cccc(NS(=O)(=O)c3c(F)cccc3F)c2F)c(-c2ccnc(N)n2)s1`, the viability, T/C (compound 0.0316 µM) was 21.4% and 24.8%, the viability, T/C (compound 0.1 µM) was 22.8% and 21.5% and the viability, T/C (compound 0.316 µM) was 20.7% and 21.4%. The viability, T/C (compound 1 µM) was 22.4% and 21.4%, the viability, T/C (compound 3.16 µM) was 21.2% and 23.6% and the viability, T/C (compound 10 µM) was 29.8% and 27.6%. The IC50 (curve of compound) was less than 31.6 nM.
`CC(C)CC(NC(=O)C(Cc1ccccc1)NC(=O)c1cnccn1)B(O)O` (stereo not drawn) was tested, and the viability, T/C (compound 31.6 pM) was 105% and 95.5%, the viability, T/C (compound 0.0001 µM) was 97.5% and 87.7% and the viability, T/C (compound 0.000316 µM) was 98.5% and 86.3%. The viability, T/C (compound 0.001 µM) was 97.5% and 70.5%, the viability, T/C (compound 0.00316 µM) was 25.8% and 18.3% and the viability, T/C (compound 0.01 µM) was 0.68% and 0.19%. For the same molecule, the IC50 (curve of compound) was 2.14 nM and 1.56 nM.
`CC(C)CC(NC(=O)CNC(=O)c1cc(Cl)ccc1Cl)B1OC(=O)CC(CC(=O)O)(C(=O)O)O1` (stereo not drawn) was tested, and the viability, T/C (compound 0.000316 µM) was 89.2% and 116%, the viability, T/C (compound 0.001 µM) was 86.8% and 91.6% and the viability, T/C (compound 0.00316 µM) was 88.2% and 98.5%. The viability, T/C (compound 0.01 µM) was 88.2% and 96%, the viability, T/C (compound 0.0316 µM) was 7.17% and 7.01% and the viability, T/C (compound 0.1 µM) was 0.41% and 1.22%. The IC50 (curve of compound) was 17.2 nM and 18.1 nM.
In the case of `CC(C)NCC(C(=O)N1CCN(c2ncnc3c2C(C)CC3O)CC1)c1ccc(Cl)cc1` (stereo not drawn), the viability, T/C (compound 9.49 µM) is reported as 76% [middle of 10 runs], the viability, T/C (compound 30 µM) is reported as 50.4% [middle of 10 runs] and the IC50 (compound alone, run of 02/20/2020) is reported as > 30000 nM and 23200 nM and 14800 nM.
For `CC(C)n1nc(-c2ccc3oc(N)nc3c2)c2c(N)ncnc21`, the viability, T/C (compound 0.000316 µM) was 78.4% and 94.5%, the viability, T/C (compound 0.001 µM) was 64.4% and 88.7% and the viability, T/C (compound 0.00316 µM) was 63% and 77.5%. For the same molecule, the viability, T/C (compound 0.01 µM) was 47.5% and 70.1%, the viability, T/C (compound 0.0316 µM) was 28.3% and 33% and the viability, T/C (compound 0.1 µM) was 10.5% and 13.6%. For the same molecule, the IC50 (curve of compound) was 7.44 nM and 18.1 nM.
With `CCCS(=O)(=O)Nc1ccc(F)c(C(=O)c2c[nH]c3ncc(-c4ccc(Cl)cc4)cc23)c1F` the viability, T/C (compound 0.316 µM) was 26.3% and 29.5%, the viability, T/C (compound 1 µM) was 22.6% and 22.5% and the viability, T/C (compound 3.16 µM) was 19.4% and 20.7%. For the same molecule, the viability, T/C (compound 10 µM) was 15.4% and 17%, the viability, T/C (compound 31.6 µM) was 19.3% and 3.37% and the viability, T/C (compound 100 µM) was 15.6% and 16.2%. It also gave an IC50 (curve of compound) of less than 316 nM.
For `COC1CC2CCC(C)C(O)(O2)C(=O)C(=O)N2CCCCC2C(=O)OC(C(C)CC2CCC(OCCO)C(OC)C2)CC(=O)C(C)C=C(C)C(O)C(OC)C(=O)C(C)CC(C)C=CC=CC=C1C` (stereo not drawn), the viability, T/C (compound 0.000316 µM) was 83% and 79.4%, the viability, T/C (compound 0.001 µM) was 66.2% and 59.1% and the viability, T/C (compound 0.00316 µM) was 58.1% and 59.4%. The viability, T/C (compound 0.01 µM) was 52.3% and 58.6%, the viability, T/C (compound 0.0316 µM) was 50.5% and 50.7% and the viability, T/C (compound 0.1 µM) was 44.2% and 44%. For the same molecule, the IC50 (curve of compound) was 18.6 nM and 28.1 nM.
With `COc1c(OCCCN2CCOCC2)ccc2c3n(c(=NC(=O)c4cnc(N)nc4)nc12)CCN3` the viability, T/C (compound 0.00316 µM) was 92.7% and 95.3%, the viability, T/C (compound 0.01 µM) was 71.3% and 85.2% and the viability, T/C (compound 0.0316 µM) was 70.3% and 76.1%. The viability, T/C (compound 0.1 µM) was 51.1% and 48.3%, the viability, T/C (compound 0.316 µM) was 19% and 21.5% and the viability, T/C (compound 1 µM) was 8.97% and 8.52%. For the same molecule, the IC50 (curve of compound) was 84 nM and 92.9 nM.
For `Cc1nc(NC(=O)N2CCCC2C(N)=O)sc1-c1ccnc(C(C)(C)C(F)(F)F)c1` (stereo not drawn), the viability, T/C (compound 0.0316 µM) was 100% and 86.7%, the viability, T/C (compound 0.1 µM) was 98.8% and 96.3% and the viability, T/C (compound 0.316 µM) was 83.6% and 72.6%. The viability, T/C (compound 1 µM) was 70.6% and 81.7%, the viability, T/C (compound 3.16 µM) was 61.6% and 68.2% and the viability, T/C (compound 10 µM) was 50% and 41.9%. The IC50 (curve of compound) was > 10000 nM and 7080 nM.
With `Cn1cnc2c(F)c(Nc3ccc(Br)cc3Cl)c(C(=O)NOCCO)cc21` the viability, T/C (compound 0.00949 µM) was 82.6% and 84.7%, the viability, T/C (compound 0.03 µM) was 49% and 52.6% and the viability, T/C (compound 0.0949 µM) was 22% and 21.7%. For the same molecule, the viability, T/C (compound 0.3 µM) was 15.4% and 16.9%, the viability, T/C (compound 0.949 µM) was 12% and the viability, T/C (compound 3 µM) was 5.64% and 5.37%. For the same molecule, the IC50 (curve of compound) was 28.2 nM and 32 nM.
Work on `COC1CC2CCC(C)C(O)(O2)C(=O)C(=O)N2CCCCC2C(=O)OC(C(C)CC2CCC(OCCO)C(OC)C2)CC(=O)C(C)C=C(C)C(O)C(OC)C(=O)C(C)CC(C)C=CC=CC=C1C` (stereo not drawn) + CC(C)NCC(C(=O)N1CCN(c2ncnc3c2C(C)CC3O)CC1)c1ccc(Cl)cc1 yielded an IC50 (curve of first compound, second compound 0.3 µM) greater than 100 nM, an IC50 (curve of first compound, second compound 0.949 µM) of 8.97 nM and an IC50 (curve of first compound, second compound 3 µM) of 1.51 nM. For the same molecule, the IC50 (curve of first compound, second compound 9.49 µM) was 0.42 nM, the IC50 (curve of first compound, second compound 30 µM) was less than 0.316 nM and the viability, T/C (second compound 0.3 µM, first compound 0.000316 µM) was 87.7%. For the same molecule, the viability, T/C (second compound 0.3 µM, first compound 0.001 µM) was 69.2%, the viability, T/C (second compound 0.3 µM, first compound 0.00316 µM) was 64.3% and the viability, T/C (second compound 0.3 µM, first compound 0.01 µM) was 55.7%. It also gave a viability, T/C (second compound 0.3 µM, first compound 0.0316 µM) of 53.8%, a viability, T/C (second compound 0.3 µM, first compound 0.1 µM) of 51.3% and a viability, T/C (second compound 0.949 µM, first compound 0.000316 µM) of 89.9%. For the same molecule, the viability, T/C (second compound 0.949 µM, first compound 0.001 µM) was 71.5%, the viability, T/C (second compound 0.949 µM, first compound 0.00316 µM) was 49.9% and the viability, T/C (second compound 0.949 µM, first compound 0.01 µM) was 51.8%. For the same molecule, the viability, T/C (second compound 0.949 µM, first compound 0.0316 µM) was 50%, the viability, T/C (second compound 0.949 µM, first compound 0.1 µM) was 42.4% and the viability, T/C (second compound 3 µM, first compound 0.000316 µM) was 70.5%. It also gave a viability, T/C (second compound 3 µM, first compound 0.001 µM) of 55.4%, a viability, T/C (second compound 3 µM, first compound 0.00316 µM) of 40.7% and a viability, T/C (second compound 3 µM, first compound 0.01 µM) of 32.1%. It also gave a viability, T/C (second compound 3 µM, first compound 0.0316 µM) of 38%, a viability, T/C (second compound 3 µM, first compound 0.1 µM) of 29.5% and a viability, T/C (second compound 9.49 µM, first compound 0.000316 µM) of 54.4%. The viability, T/C (second compound 9.49 µM, first compound 0.001 µM) was 37.1%, the viability, T/C (second compound 9.49 µM, first compound 0.00316 µM) was 26% and the viability, T/C (second compound 9.49 µM, first compound 0.01 µM) was 26.4%. It also gave a viability, T/C (second compound 9.49 µM, first compound 0.0316 µM) of 23.6%, a viability, T/C (second compound 9.49 µM, first compound 0.1 µM) of 21.8% and a viability, T/C (second compound 30 µM, first compound 0.000316 µM) of 36.2%. The viability, T/C (second compound 30 µM, first compound 0.001 µM) was 32.8%, the viability, T/C (second compound 30 µM, first compound 0.00316 µM) was 20.7% and the viability, T/C (second compound 30 µM, first compound 0.01 µM) was 22.1%. The viability, T/C (second compound 30 µM, first compound 0.0316 µM) was 19.9% and the viability, T/C (second compound 30 µM, first compound 0.1 µM) was 19.1%.
